This is an account of results in patent US20090317474A1, “USE OF POLYETHYLENE GLYCOL IN INFLAMMATION RELATED TOPICAL DISORDERS OR DISEASES AND WOUND HEALING” (Flen Pharma N.V., priority 2006, published 2009).

Series [1] deals with proMMP-9. Nature of the series: proMMP-9 secretion by J774 macrophages challenged with heat inactivated E. coli. The class given is cell-based, murine. The procedure: Macrophage cells were pre-conditioned for 30 min. with varying concentrations of PEG400 (0.31-10% w/w) and then challenged with heat inactivated E. coli bacteria. Next, cells were further incubated overnight. The supernatant of cells was analyzed for proMMP-9 according to the manufacturer's indications (R&D systems, Abingdon, UK).

Series [2] has as its system IL-6. Nature of the series: IL-6 expression by J774 macrophages after heat inactivated E. coli stimulation. It counts as cell-based, murine. Particulars: J774 cells, with vs without PEG. On the procedure: The cells were cultured with or without PEG (PEG600 diacid) The expression of IL-6 is lowered by about 30% when PEG is added.
In series [3] the test system is VEGF. Nature of the series: VEGF expression by fibroblasts (ELISA). It counts as cell-based, murine. Particulars: overnight.
Series [4] relates to IL-6. Nature of the series: IL-6 expression in 3T3 cells incubated with hydrogel. It counts as cell-based, murine. The following applies: Na+-Ca++ alginate gel with 2.5% PEG400 vs gel without PEG400, 16 h. On the procedure: (§1) J774 macrophages were pre-conditioned for 30 min. with the gels and were then challenged with 100 ng/ml LPS. 3T3 cells were not challenged with bacteria. Next, the murine macrophage J774 and murine fibroblast 3T3 cells were incubated with the gels for 16 h at 37° C., 5% CO2. Hereafter, the medium was collected, centrifuged at 14,000 rpm during 20 min to remove particulate material and assayed for the indicated secreted proteins. Results are the mean of two independent experiments and are expressed as percentages of the control experiment.
(§2) A hydrogel was made by dissolving 2 g Kelset (Na^+—Ca^++ alginate) and 5 g PEG400 in a final volume of 100 ml growth medium [DMEM high glucose, 10% FCS, 4 mM L-Glutamine, antibiotics]. This mixture was further diluted with an additional 100 ml of growth medium to lower the viscosity of the solutions. The final concentration of PEG400 was 2.5%.
(§3) A similar solution without PEG400 was used as control.

Series [5] has as its system VEGF. Nature of the series: VEGF expression in 3T3 cells incubated with hydrogel. It counts as cell-based, murine. Particulars: Na+-Ca++ alginate gel with 2.5% PEG400 vs gel without PEG400, 16 h. On the procedure: as §1, §2, §3
Series [6] relates to 3T3 fibroblasts. Nature of the series: Toxicity of PEG on cultivated cells (tetrazolium cell survival). The class given is cell-based, murine. On the procedure: (§4) Cells were grown in DMEM (3T3 fibroblasts and HaCat keratinocytes) or in RPMI1640 (J774 macrophages). Both media were supplemented with heat inactivated 10% Fetal Calf Serum (Sigma), 2 mM L-Glutamine (Sigma) and antibiotics (Sigma). Cells were seeded subconfluent in 96 well plates and contacted for about 16 hours with PEG test compounds which were dissolved in growth media (expressed as w/w end concentrations).
(§5) Cell survival was assayed by the conversion of soluble tetrazolium salt into an insoluble and pink colored formazan (absorption measured at 570 nm).
(§6) Cells were incubated overnight with varying concentrations of PEG 400 (0.31-10% w/w). From 5% onwards, PEG has a cytotoxic effect on in vitro cultivated cells, especially on keratinocytes (FIG. 1A) and on macrophages (FIG. 1B), and to a lesser extent on fibroblasts (FIG. 1C).

Series [7] deals with J774 macrophages. The series is described as above. The class given is cell-based, murine. On the procedure:
as §4, §5, §6

Series [8] has as its system VEGF. Nature of the series: VEGF expression by vascular endothelial cells (SVEC). The class given is cell-based. The text has this:
(§7) The expression of VEGF upon administration of PEG and/or other humectants was investigated on vascular endothelial cells (SVEC) and on fibroblast cells (3T3). The beneficial role of VEGF expression in the healing of ischemic wounds is described in Corrall et al. (1999) Arch. Surg. 134, 200-205.

The test system of series [9] is VEGF. Nature of the series: VEGF expression by fibroblast cells (3T3), comparison of humectants. It counts as cell-based, murine. Particulars: 3T3 fibroblast cells.
Text: as §7

Series [10] has as its system IL-6. Nature of the series: IL-6 secretion by LPS-challenged J774 macrophages incubated with hydrogels. It counts as cell-based, murine. On the procedure: as §1, §2
(§8) A hydrogel was made by dissolving 1 g Carbopol (polyacrylate), 5 g PEG400, 2.1 g Arginine and 3 g PCL (cetearyl octanoate) in a total volume of 100 ml growth medium [DMEM(high glucose), 10% FCS, 4 mM L-Glutamine, antibiotics]. This mixture was further diluted with an additional 100 ml of growth medium to lower the viscosity of the solutions. Cultures of murine macrophages J774 were used. The final concentration of PEG400 in contact with the cells was 2.5%. A similar solution without PEG400 was used as control.
(§9) A hydrogel was made by dissolving 3 g CMC ([…]), and 5 g PEG400 in a final volume of 100 ml growth medium [DMEM(high glucose), 10% FCS/4 mM L-Glutamine, antibiotics]. This mixture was further diluted with an additional 100 ml of growth medium to lower the viscosity of the solutions. Cultures of murine macrophages J774 were used. The final concentration of PEG400 was 2.5%. A similar solution without PEG400 was used as control.

In series [11] the test system is pro-MMP9. Nature of the series: pro-MMP9 secretion by LPS-challenged J774 macrophages incubated with hydrogels. The class given is cell-based, murine. The procedure: as §1, §2, §8, §9
In series [12] the test system is HaCat keratinocytes. Nature of the series: Toxicity of PEG on cultivated cells (tetrazolium cell survival). The class given is cell-based. The procedure:
as §4, §5, §6

Series [13] deals with Collagen type III. Nature of the series: Collagen III expression by 3T3 fibroblast cells. The class given is cell-based, murine. The following applies: 3T3 cells. An excerpt: This increase of collagen III expression was significant compared to control.
Where [14] appears, read: overnight incubation, PEG 400 0.31-10% w/w.
Setting [15] is: J774, alginate gel, 2.5% PEG400, 100 ng/ml LPS.
Setting [16] is: J774, carboxymethylcellulose gel, 2.5% PEG400, 100 ng/ml LPS.
Where [17] appears, read: J774, polyacrylate (Carbopol) gel, 2.5% PEG400, LPS.

Where only a bound is given, the exact number is not on record here.

Regarding PEG 600 diacid, the pro-MMP9 expression entry in [1] (J774 cells challenged with heat inactivated E. coli after 30 min pre-incubation) is “lowered”. Further, the “lowering of IL-6 expression” value in [2] is reported as “about 30%”. In [3] (3T3 fibroblasts, increasing amounts 0.078-0.625% w/w), the VEGF expression entry is “influenced”.
As for Polyethylene glycol [PEG 400], in [4], the IL-6 expression entry is listed as “decreased”. The VEGF expression result was “slightly increased” in series [5]; “increases” in [3] (fibroblasts, PEG400 concentrations between 2% and 10%). Further, the “effect on cell survival” value in [6] (concentrations below 5%) was “no detrimental effect”; in series [7] (concentrations below 5%), “no detrimental effect”; in series [12] (keratinocytes, concentrations below 5%) it was “no detrimental effect”. For the same substance, the “concentration from which PEG has a cytotoxic effect” value was no less than 5% in series [6] (setting [14]); no less than 5% in series [7] (setting [14]); no less than 5% in [12] (keratinocytes, overnight incubation, PEG 400 0.31-10% w/w). The “VEGF expression compared with 4% propylene glycol and 4% glycerol” value in [8] and in series [9] was “highest expression” in each case. Moreover, the “secretion of IL-6” value in series [10] (setting [15]) is recorded as “reduced”. Besides, the “expression of IL-6” value is given as “clearly reduced” in series [10] (setting [16]) and “reduced” in series [10] (setting [17]). Besides, the “secretion of pro-MMP9” value in [11] (setting [15]) is given as “reduced”. Further, the “expression of pro-MMP9” value in series [11] (setting [16]) is on record as “less reduced”; in [11] (setting [17]) it was “reduced”. Besides, the “concentration from which PEG400 is cytotoxic (summary statement)” value in series [12] (summary of Example 1, cell type not specified) is ≥ 5 % (w/w). For the same substance, in series [1] (J774, PEG 400 concentration from about up to roughly 1% (w/w), 30 min pre-conditioning, heat inactivated E. coli, overnight), the “secretion of proMMP9” value is listed as “significantly reduced”. Besides, the “collagen III expression compared with 4% propylene glycol and 4% glycerol” value in series [13] is “highest expression”. Also, the “increase of collagen III expression compared to control” value in series [13] (4%) is given as “significant”. In addition, the “PEG400 concentration of maximum VEGF expression” value in series [3] (fibroblasts, 0.31-10% w/w tested) is recorded as 5%.
